The values that follow come from US7994192B2, “Substituted thienopyridone compounds with antibacterial activity” (Crestone, Inc., priority 2006, dated 2011).

In test [1] the test system is C. difficile. Description: C. difficile-infected hamster survival study. It counts as in vivo. As for the experimental part:
Animal studies were performed to determine the efficacy of MetRS inhibitors for treating C. difficile-infections. The MetRS inhibitors tested were 5-[3-((R)-6,8-Dibromo-chroman-4-ylamino)-propylamino]-4H-thieno[3,2-b]pyridine-7-one (both racemic mixture and the R enantiomer) and 5-[3-((R)-8-Bromo-6-chloro-chroman-4-ylamino)-propylamino]-4H-thieno[3,2-b]pyridin-7-one. Also tested was 2-(3-{3,5-Dibromo-2-[2-(4-methyl-thiazol-5-yl)-ethoxy]-benzylamino}-propylamino)-1H-quinolin-4-one.
Results were compared to C. difficile-infected hamsters treated with the conventional antibiotic, vancomycin. Infected hamsters were treated with either a solution or suspension of a MetRS inhibitor at 5 to 50 mg/kg or vancomycin at 2.5, 5 or 25 mg/kg. There were eight hamsters per group with the final endpoint of the experiment being survival. Expired hamsters were examined for GI condition.

Test [2] deals with C. difficile. Description: Sporulation of C. difficile clinical isolates on agar containing compound. Format: cell-based.

Consider `O=c1cc(NCCCN[C@@H]2CCOc3c(Br)cc(Br)cc32)[nH]c2ccsc12` [5-[3-((R)-6,8-Dibromo-chroman-4-ylamino)-propylamino]-4H-thieno[3,2-b]pyridine-7-one], for which, in the test with C. difficile [1] (5 mg/kg BID), the “survival on Day 28” value is recorded as more than 60%. In addition, in the test on C. difficile [1] (hamster, in vivo), the “efficacy ranking among the MetRS inhibitors tested” value is on record as “best efficacy”. For the same compound, the “spores (share of total cells)” value with C. difficile [2] (0.25×MIC, 96 hours, all strains) was less than 2%; with C. difficile [2] (0.5×MIC, 96 hours, all strains), less than 1%.

With `Cc1ncc([N+](=O)[O-])n1CCO` [metronidazole, reference compound], the “spores (share of total cells)” value in the test on C. difficile [2] (subMIC concentrations, all tested strains) was “up to 100%”.

As to `CN[C@H](CC(C)C)C(=O)N[C@H]1C(=O)N[C@@H](CC(N)=O)C(=O)N[C@H]2C(=O)N[C@H]3C(=O)N[C@H](C(=O)N[C@H](C(=O)O)c4cc(O)cc(O)c4-c4cc3ccc4O)[C@H](O)c3ccc(c(Cl)c3)Oc3cc2cc(c3O[C@@H]2O[C@H](CO)[C@@H](O)[C@H](O)[C@H]2O[C@H]2C[C@](C)(N)[C@H](O)[C@H](C)O2)Oc2ccc(cc2Cl)[C@H]1O` [vancomycin, reference compound], the “survival on Day 28” value in the test with C. difficile [1] (vancomycin treatment, dose not given in the sentence (2.5, 5 or 25 mg/kg used)) was 0-10%.
